Assay results from patent publication US11180504B2 (ORCHID PHARMA LTD., priority 2016, dated 2021).
In brackets after ≈: the same amount, converted by molar mass.

Experiments:
[1] = tested on: methicillin-sensitive Staphylococcus aureus; experiment: MIC by broth micro-dilution (CLSI), methicillin-sensitive S. aureus; assay type: cell-based; conditions: Staphylococcus aureus, ATCC 29213 / MSSA, MSSA S. aureus ATCC29213; read-out: MIC
[2] = tested on: carbapenem sensitive Escherichia coli; experiment: MIC by broth micro-dilution (CLSI), carbapenem sensitive E. coli; assay type: cell-based; conditions: Escherichia coli, ATCC25922, ESBL −ve E. coli ATCC25922; read-out: MIC
[3] = tested on: extended spectrum β lactamase (ESBL) SHV18 producing Klebsiella pneumoniae; experiment: MIC by broth micro-dilution (CLSI), ESBL SHV18 producing K. pneumoniae; assay type: cell-based; conditions: Klebsiella pneumoniae, ATCC700603, 22 h, ESBL +ve (SHV-18) K. pneumoniae ATCC700603; read-out: MIC
[4] = tested on: carbapenemase producing K. pneumoniae; experiment: MIC by broth micro-dilution (CLSI), carbapenemase producing K. pneumoniae; assay type: cell-based, Klebsiella pneumoniae; conditions: Klebsiella pneumoniae, ATCCBAA1705, KPC-2 K. pneumoniae ATCC BAA-1705; read-out: MIC
[5] = tested on: carbapenem sensitive Pseudomonas aeruginosa; experiment: MIC by broth micro-dilution (CLSI), carbapenem sensitive P. aeruginosa; assay type: cell-based; conditions: Pseudomonas aeruginosa, ATCC27853, Meropenem susceptible P. aeruginosa ATCC27853; read-out: MIC

MIC [1] [µg/mL]	MIC [2] [µg/mL]	MIC [3] [µg/mL]	MIC [4] [µg/mL]	MIC [5] [µg/mL]	Structure (SMILES)
2 (≈ 3.88 µM)	1 (≈ 1.94 µM)	4 (≈ 7.76 µM)	4 (≈ 7.76 µM)	16 (≈ 31 µM)	C[C@@H](NC(=O)C(F)F)[C@H]1C(=O)N2C(C(=O)O)=C(S[C@@H]3CN[C@H](C(=O)N(C)[C@H]4CCNC4)C3)[C@H](C)[C@H]12 [Example 134]
2 (≈ 3.88 µM)	1 (≈ 1.94 µM)	4 (≈ 7.76 µM)	4 (≈ 7.76 µM)	8 (≈ 15.5 µM)	C[C@@H]1CN(C(=O)[C@@H]2C[C@H](SC3=C(C(=O)O)N4C(=O)[C@H]([C@@H](C)NC(=O)C(F)F)[C@H]4[C@H]3C)CN2)CCN1 [Example 135]
> 128	4 (≈ 8.17 µM)	16 (≈ 32.7 µM)	16 (≈ 32.7 µM)	32 (≈ 65.4 µM)	C[C@@H](NS(=O)(=O)CCN)[C@H]1C(=O)N2C(C(=O)O)=C(S[C@@H]3CN[C@H](C(=O)N(C)C)C3)[C@H](C)[C@H]12 [Example 136]
4 (≈ 7.01 µM)	1 (≈ 1.75 µM)	8 (≈ 14 µM)	8 (≈ 14 µM)	> 128	COc1coc(CNC(=O)[C@@H]2C[C@H](SC3=C(C(=O)O)N4C(=O)[C@H]([C@@H](C)NC(=O)C(F)F)[C@H]4[C@H]3C)CN2)cc1=O [Example 137]
32 (≈ 65.4 µM)	4 (≈ 8.17 µM)	32 (≈ 65.4 µM)	64 (≈ 131 µM)	> 128	C[C@@H](NC(=O)C(F)(F)CN)[C@H]1C(=O)N2C(C(=O)O)=C(S[C@@H]3CN[C@H](C(=O)N(C)C)C3)[C@H](C)[C@H]12 [Example 138]
32 (≈ 66.4 µM)	1 (≈ 2.08 µM)	4 (≈ 8.31 µM)	4 (≈ 8.31 µM)	32 (≈ 66.4 µM)	CCCNCC(=O)N[C@H](C)[C@H]1C(=O)N2C(C(=O)O)=C(S[C@@H]3CN[C@H](C(=O)N(C)C)C3)[C@H](C)C12 (some centres unmarked) [Example 139]
2 (≈ 3.84 µM)	0.5 (≈ 0.961 µM)	1 (≈ 1.92 µM)	2 (≈ 3.84 µM)	32 (≈ 61.5 µM)	C[C@H]1C(S[C@@H]2CN[C@H](C(=O)N(CCO)CCO)C2)=C(C(=O)O)N2C(=O)[C@H]([C@@H](C)NC(=O)C(F)F)C12 (some centres unmarked) [Example 140]
4 to 8 (≈ 7.16 to 14.3 µM)	1 (≈ 1.79 µM)	4 to 8 (≈ 7.16 to 14.3 µM)	4 to 8 (≈ 7.16 to 14.3 µM)	64 (≈ 115 µM)	CNC(=O)[C@@H]1C[C@H](N)CN1C(=O)[C@@H]1C[C@H](SC2=C(C(=O)O)N3C(=O)[C@H]([C@@H](C)NC(=O)C(F)F)[C@H]3[C@H]2C)CN1 [Example 141]
4 to 8 (≈ 6.99 to 14 µM)	1 (≈ 1.75 µM)	8 (≈ 14 µM)	8 (≈ 14 µM)	16 to 32 (≈ 27.9 to 55.9 µM)	C[C@@H](NC(=O)C(F)F)[C@H]1C(=O)N2C(C(=O)O)=C(S[C@@H]3CN[C@H](C(=O)N4C[C@@H](N)C[C@H]4C(=O)N(C)C)C3)[C@H](C)[C@H]12 [Example 142]
2 (≈ 4.08 µM)	1 (≈ 2.04 µM)	8 (≈ 16.3 µM)	8 (≈ 16.3 µM)	32 to 64 (≈ 65.2 to 130 µM)	C[C@@H](NC(=O)C(F)(F)CO)[C@H]1C(=O)N2C(C(=O)O)=C(S[C@@H]3CN[C@H](C(=O)N(C)C)C3)[C@H](C)[C@H]12 [Example 143]
0.5 (≈ 1.03 µM)	2 (≈ 4.1 µM)	8 to 16 (≈ 16.4 to 32.8 µM)	8 (≈ 16.4 µM)	32 (≈ 65.6 µM)	C[C@@H](NC(=O)C(F)F)[C@H]1C(=O)N2C(C(=O)O)=C(S[C@@H]3CN[C@H](CN4CCNCC4)C3)[C@H](C)[C@H]12 [Example 145]
2 (≈ 3.29 µM)	1 (≈ 1.64 µM)	2 (≈ 3.29 µM)	4 to 8 (≈ 6.57 to 13.1 µM)	64 to 128 (≈ 105 to 210 µM)	C[C@@H](NC(=O)C(F)F)[C@H]1C(=O)N2C(C(=O)O)=C(S[C@@H]3CN[C@H](C(=O)N4CC[C@H](NC(=O)C(F)(F)CN)C4)C3)[C@H](C)[C@H]12 [Example 147]
1 to 2 (≈ 1.93 to 3.86 µM)	0.5 (≈ 0.966 µM)	1 (≈ 1.93 µM)	2 to 4 (≈ 3.86 to 7.73 µM)	32 to 64 (≈ 61.8 to 124 µM)	C[C@@H](NC(=O)C(F)F)[C@H]1C(=O)N2C(C(=O)O)=C(S[C@@H]3CN[C@H](C(=O)N4CC[C@H](ON)C4)C3)[C@H](C)[C@H]12 [Example 148]
2 (≈ 3.88 µM)	1 (≈ 1.94 µM)	8 (≈ 15.5 µM)	8 (≈ 15.5 µM)	4 (≈ 7.76 µM)	CN[C@@H]1CCN(C(=O)[C@@H]2C[C@H](SC3=C(C(=O)O)N4C(=O)[C@H]([C@@H](C)NC(=O)C(F)F)[C@H]4[C@H]3C)CN2)C1 [Example 149]
4 (≈ 8.2 µM)	4 (≈ 8.2 µM)	64 (≈ 131 µM)	16 (≈ 32.8 µM)	64 (≈ 131 µM)	C[C@@H](NC(=O)C(F)F)[C@H]1C(=O)N2C(C(=O)O)=C(S[C@@H]3CN[C@H](CN4CC[C@H](N)C4)C3)[C@H](C)[C@H]12 [Example 150]
4 (≈ 6.8 µM)	2 (≈ 3.4 µM)	16 (≈ 27.2 µM)	8 (≈ 13.6 µM)	32 (≈ 54.4 µM)	CNCC(=O)NO[C@H]1CCN(C(=O)[C@@H]2C[C@H](SC3=C(C(=O)O)N4C(=O)[C@H]([C@@H](C)NC(=O)C(F)F)[C@H]4[C@H]3C)CN2)C1 [Example 151]

MIC [1] [µg/mL]	MIC [2] [µg/mL]	MIC [3] [µg/mL]	MIC [4] [µg/mL]	MIC [5] [µg/mL]	Structure (SMILES)
8 (≈ 14.3 µM)	1 (≈ 1.79 µM)	2 (≈ 3.58 µM)	8 (≈ 14.3 µM)	64 (≈ 115 µM)	C[C@@H](NC(=O)C(F)F)[C@H]1C(=O)N2C(C(=O)O)=C(S[C@@H]3CN[C@H](C(=O)N4CC[C@H](NCC(N)=O)C4)C3)[C@H](C)[C@H]12 [Example 153]
4 (≈ 7.16 µM)	1 (≈ 1.79 µM)	2 (≈ 3.58 µM)	8 (≈ 14.3 µM)	64 (≈ 115 µM)	C[C@@H](NC(=O)C(F)F)[C@H]1C(=O)N2C(C(=O)O)=C(S[C@@H]3CN[C@H](C(=O)N4CC[C@@H](NCC(N)=O)C4)C3)[C@H](C)[C@H]12 [Example 154]
2 (≈ 3.49 µM)	1 (≈ 1.75 µM)	8 (≈ 14 µM)	8 (≈ 14 µM)	32 (≈ 55.9 µM)	CNCC(=O)N[C@@H]1CCN(C(=O)[C@@H]2C[C@H](SC3=C(C(=O)O)N4C(=O)[C@H]([C@@H](C)NC(=O)C(F)F)[C@H]4[C@H]3C)CN2)C1 [Example 155]
2 (≈ 3.68 µM)	1 (≈ 1.84 µM)	8 (≈ 14.7 µM)	4 (≈ 7.36 µM)	4 (≈ 7.36 µM)	C[C@@H](NC(=O)C(F)F)[C@H]1C(=O)N2C(C(=O)O)=C(S[C@@H]3CN[C@H](C(=O)N4CCN(C(=N)N)CC4)C3)[C@H](C)[C@H]12 [Example 157]
2 (≈ 3.49 µM)	1 (≈ 1.75 µM)	4 (≈ 6.99 µM)	4 (≈ 6.99 µM)	8 (≈ 14 µM)	CNCC(=O)N1CCN(C(=O)[C@@H]2C[C@H](SC3=C(C(=O)O)N4C(=O)[C@H]([C@@H](C)NC(=O)C(F)F)[C@H]4[C@H]3C)CN2)CC1 [Example 158]
2 (≈ 3.58 µM)	1 (≈ 1.79 µM)	4 (≈ 7.16 µM)	4 (≈ 7.16 µM)	8 (≈ 14.3 µM)	C[C@@H](NC(=O)C(F)F)[C@H]1C(=O)N2C(C(=O)O)=C(S[C@@H]3CN[C@H](C(=O)N4CCN(C(=O)CN)CC4)C3)[C@H](C)[C@H]12 [Example 159]
4 (≈ 7.16 µM)	1 (≈ 1.79 µM)	8 (≈ 14.3 µM)	8 (≈ 14.3 µM)	16 (≈ 28.6 µM)	C[C@@H](NC(=O)C(F)F)[C@H]1C(=O)N2C(C(=O)O)=C(S[C@@H]3CN[C@H](C(=O)N4CC[C@@H](NC(=O)CN)C4)C3)[C@H](C)[C@H]12 [Example 160]
0.5 (≈ 0.97 µM)	0.5 (≈ 0.97 µM)	8 (≈ 15.5 µM)	4 (≈ 7.76 µM)	8 (≈ 15.5 µM)	C[C@@H](NC(=O)C(F)F)[C@H]1C(=O)N2C(C(=O)O)=C(S[C@@H]3CN[C@H](C(=O)N4CCNC[C@@H]4C)C3)[C@H](C)[C@H]12 [Example 161]
1 (≈ 1.94 µM)	0.5 (≈ 0.97 µM)	4 (≈ 7.76 µM)	4 (≈ 7.76 µM)	16 (≈ 31 µM)	C[C@@H](NC(=O)C(F)F)[C@H]1C(=O)N2C(C(=O)O)=C(S[C@@H]3CN[C@H](C(=O)N4CCCNCC4)C3)[C@H](C)[C@H]12 [Example 162]
1 (≈ 1.99 µM)	1 (≈ 1.99 µM)	4 (≈ 7.94 µM)	4 (≈ 7.94 µM)	8 (≈ 15.9 µM)	CNCCN(C)C(=O)[C@@H]1C[C@H](SC2=C(C(=O)O)N3C(=O)[C@H]([C@@H](C)NC(=O)C(F)F)[C@H]3[C@H]2C)CN1 [Example 163]
1 (≈ 1.93 µM)	0.25 (≈ 0.483 µM)	1 (≈ 1.93 µM)	4 (≈ 7.73 µM)	32 (≈ 61.8 µM)	C[C@@H](NC(=O)C(F)F)[C@H]1C(=O)N2C(C(=O)O)=C(S[C@@H]3CN[C@H](C(=O)N4CC[C@@H](ON)C4)C3)[C@H](C)[C@H]12 [Example 164]
64 (≈ 141 µM)	2 (≈ 4.41 µM)	4 (≈ 8.82 µM)	2 (≈ 4.41 µM)	32 (≈ 70.6 µM)	C[C@@H](NC(=O)CCN)[C@H]1C(=O)N2C(C(=O)O)=C(S[C@@H]3CN[C@H](C(=O)N(C)C)C3)[C@H](C)[C@H]12 [Example 165]
64 (≈ 137 µM)	4 (≈ 8.55 µM)	8 (≈ 17.1 µM)	8 (≈ 17.1 µM)	32 (≈ 68.4 µM)	CNCCC(=O)N[C@H](C)[C@H]1C(=O)N2C(C(=O)O)=C(S[C@@H]3CN[C@H](C(=O)N(C)C)C3)[C@H](C)[C@H]12 [Example 166]
2 (≈ 3.96 µM)	4 (≈ 7.91 µM)	4 (≈ 7.91 µM)	4 (≈ 7.91 µM)	32 (≈ 63.3 µM)	C[C@H]([C@H]1C(=O)N2C(C(=O)O)=C(SC3CN[C@H](C(=O)N4CC[C@@H](N)C4)C3)[C@H](C)[C@H]12)n1cc(CO)nn1 (some centres unmarked) [Example 167]
16 (≈ 32.3 µM)	1 (≈ 2.02 µM)	2 (≈ 4.04 µM)	2 (≈ 4.04 µM)	2 (≈ 4.04 µM)	CNCC(=O)N[C@H](C)[C@H]1C(=O)N2C(C(=O)O)=C(S[C@@H]3CN[C@H](C(=O)N4CCNCC4)C3)[C@H](C)[C@H]12 [Example 168]
